From ChEMBL document CHEMBL1275440, “In vitro activity of telavancin against resistant gram-positive bacteria” (2008)
Values after ≈ are worked out from the molar mass of the structure shown. Active and inactive are the calls of the source. The rule behind the calls is not given here.

What was measured:
[1] = test system: Enterococcus faecalis; test: Antibacterial activity against vancomycin resistant Enterococcus faecalis VanB clinical isolate by broth microdilution method; assay type: functional
[2] = test system: Enterococcus faecium; test: Antibacterial activity against vancomycin resistant Enterococcus faecium VanA clinical isolate assessed as susceptibility level by broth microdilution method; assay type: functional
[3] = test system: Enterococcus faecalis
[4] = test system: Enterococcus faecalis; test: Antibacterial activity against vancomycin resistant Enterococcus faecalis VanA clinical isolate assessed as susceptibility level by broth microdilution method; assay type: functional
[5] = test system: Enterococcus faecium; test: Antibacterial activity against vancomycin resistant Enterococcus faecium VanB clinical isolate assessed as susceptibility level by broth microdilution method; assay type: functional
[6] = test system: Enterococcus faecalis; test: Antibacterial activity against vancomycin resistant Enterococcus faecalis VanB clinical isolate assessed as susceptibility level by broth microdilution method; assay type: functional
[7] = test system: Enterococcus faecium; test: Antibacterial activity against vancomycin resistant Enterococcus faecium VanA clinical isolate by broth microdilution method; assay type: functional
[8] = test system: Enterococcus faecium; test: Antibacterial activity against vancomycin resistant Enterococcus faecium VanB clinical isolate by broth microdilution method; assay type: functional
[9] = test system: Enterococcus faecalis; test: Antibacterial activity against vancomycin resistant Enterococcus faecalis VanA clinical isolate by broth microdilution method; assay type: functional
[10] = test system: Staphylococcus capitis; test: Antibacterial activity against methicillin resistant coagulase-negative Staphylococcus capitis clinical isolate assessed as susceptibility level by broth microdilution method; assay type: functional
[11] = test system: Streptococcus pneumoniae; test: Antibacterial activity against multidrug-resistant Streptococcus pneumoniae clinical isolate by broth microdilution method; assay type: functional
[12] = test system: Streptococcus constellatus; test: Antibacterial activity against Streptococcus constellatus clinical isolate assessed as susceptibility level by broth microdilution method; assay type: functional
[13] = test system: Streptococcus pyogenes; test: Antibacterial activity against Streptococcus pyogenes group A clinical isolate by broth microdilution method; assay type: functional
[14] = test system: Streptococcus agalactiae; test: Antibacterial activity against Streptococcus agalactiae group B clinical isolate by broth microdilution method; assay type: functional
[15] = Antibacterial activity against methicillin resistant coagulase-negative Staphylococcus hominis subsp. novobiosepticus clinical isolate assessed as susceptibility level by broth microdilution method; assay type: functional
[16] = test system: Streptococcus pneumoniae; test: Antibacterial activity against multidrug-resistant Streptococcus pneumoniae clinical isolate assessed as susceptibility level by broth microdilution method; assay type: functional
[17] = test system: Streptococcus oralis; test: Antibacterial activity against Streptococcus oralis clinical isolate assessed as susceptibility level by broth microdilution method; assay type: functional
[18] = test system: Streptococcus constellatus; test: Antibacterial activity against Streptococcus constellatus clinical isolate by broth microdilution method; assay type: functional
[19] = test system: Streptococcus intermedius; test: Antibacterial activity against Streptococcus intermedius clinical isolate assessed as susceptibility level by broth microdilution method; assay type: functional
[20] = test system: Staphylococcus aureus; test: Antibacterial activity against methicillin resistant Staphylococcus aureus clinical isolate assessed as susceptibility level by broth microdilution method; assay type: functional
[21] = test system: Staphylococcus saprophyticus; test: Antibacterial activity against methicillin resistant coagulase-negative Staphylococcus saprophyticus clinical isolate assessed as susceptibility level by broth microdilution method; assay type: functional
[22] = test system: Staphylococcus auricularis; test: Antibacterial activity against methicillin resistant coagulase-negative Staphylococcus auricularis clinical isolate by broth microdilution method; assay type: functional
[23] = test system: Staphylococcus aureus; test: Antibacterial activity against methicillin resistant Staphylococcus aureus clinical isolate by broth microdilution method; assay type: functional; settings: for MIC50 / MIC90: Staphylococcus aureus
[24] = test system: Staphylococcus saprophyticus; test: Antibacterial activity against methicillin resistant coagulase-negative Staphylococcus saprophyticus clinical isolate by broth microdilution method; assay type: functional
[25] = test system: Streptococcus pneumoniae; test: Antibacterial activity against penicillin intermediate Streptococcus pneumoniae clinical isolate by broth microdilution method; assay type: functional
[26] = test system: Staphylococcus epidermidis; test: Antibacterial activity against methicillin resistant Staphylococcus epidermidis clinical isolate by broth microdilution method; assay type: functional
[27] = test system: Staphylococcus epidermidis; test: Antibacterial activity against methicillin resistant Staphylococcus epidermidis clinical isolate assessed as susceptibility level by broth microdilution method; assay type: functional
[28] = test system: Streptococcus viridans; test: Antibacterial activity against Streptococcus viridans clinical isolate by broth microdilution method; assay type: functional
[29] = test system: Streptococcus agalactiae; test: Antibacterial activity against Streptococcus agalactiae group B clinical isolate assessed as susceptibility level by broth microdilution method; assay type: functional
[30] = test system: Streptococcus pneumoniae; test: Antibacterial activity against penicillin resistant Streptococcus pneumoniae clinical isolate by broth microdilution method; assay type: functional
[31] = test system: Streptococcus pneumoniae; test: Antibacterial activity against penicillin intermediate Streptococcus pneumoniae clinical isolate assessed as susceptibility level by broth microdilution method; assay type: functional
[32] = test system: Streptococcus pyogenes; test: Antibacterial activity against Streptococcus pyogenes group A clinical isolate assessed as susceptibility level by broth microdilution method; assay type: functional
[33] = Antibacterial activity against methicillin resistant coagulase-negative Staphylococcus hominis subsp. novobiosepticus clinical isolate by broth microdilution method; assay type: functional
[34] = test system: Staphylococcus auricularis; test: Antibacterial activity against methicillin resistant coagulase-negative Staphylococcus auricularis clinical isolate assessed as susceptibility level by broth microdilution method; assay type: functional
[35] = test system: Staphylococcus haemolyticus; test: Antibacterial activity against methicillin resistant coagulase-negative Staphylococcus haemolyticus clinical isolate assessed as susceptibility level by broth microdilution method; assay type: functional
[36] = test system: Streptococcus oralis; test: Antibacterial activity against Streptococcus oralis clinical isolate by broth microdilution method; assay type: functional
[37] = test system: Staphylococcus haemolyticus; test: Antibacterial activity against methicillin resistant coagulase-negative Staphylococcus haemolyticus clinical isolate by broth microdilution method; assay type: functional
[38] = test system: Streptococcus pneumoniae; test: Antibacterial activity against penicillin resistant Streptococcus pneumoniae clinical isolate assessed as susceptibility level by broth microdilution method; assay type: functional
[39] = test system: Streptococcus intermedius; test: Antibacterial activity against Streptococcus intermedius clinical isolate by broth microdilution method; assay type: functional
[40] = test system: Streptococcus mitis; test: Antibacterial activity against Streptococcus mitis clinical isolate by broth microdilution method; assay type: functional
[41] = test system: Streptococcus viridans; test: Antibacterial activity against Streptococcus viridans clinical isolate assessed as susceptibility level by broth microdilution method; assay type: functional
[42] = test system: Staphylococcus capitis; test: Antibacterial activity against methicillin resistant coagulase-negative Staphylococcus capitis clinical isolate by broth microdilution method; assay type: functional
[43] = test system: Streptococcus mitis; test: Antibacterial activity against Streptococcus mitis clinical isolate assessed as susceptibility level by broth microdilution method; assay type: functional

SMILES: CC1(C)S[C@@H]2[C@H](NC(=O)[C@H](N)c3ccccc3)C(=O)N2[C@H]1C(=O)O [AMPICILLIN]
- MIC [1]: ≤ 0.25 µg/mL
- Activity [2]: 0%
- MIC50 [3]: inactive
- MIC90 [3]: inactive
- Percent of isolates susceptible [4]: 81%
- Activity [5]: 22%
- Activity [6]: 60%
- MIC50 [7]: 64 µg/mL (≈ 183 µM)
- MIC90 [7]: 128 µg/mL (≈ 366 µM)
- MIC50 [8]: 64 µg/mL (≈ 183 µM)
- MIC90 [8]: 64 µg/mL (≈ 183 µM)
- MIC50 [9]: 1 µg/mL (≈ 2.86 µM)
- MIC90 [9]: 64 µg/mL (≈ 183 µM)

SMILES: CC[C@H]1OC(=O)[C@H](C)[C@@H](O[C@H]2C[C@@](C)(OC)[C@@H](O)[C@H](C)O2)[C@H](C)[C@@H](O[C@@H]2O[C@H](C)C[C@H](N(C)C)[C@H]2O)[C@](C)(O)C[C@@H](C)C(=O)[C@H](C)[C@@H](O)[C@]1(C)O [ERYTHROMYCIN]
- Activity [10]: 18%
- MIC [11]: 0.03 µg/mL (≈ 0.0409 µM)
- Activity [12]: 63%
- MIC50 [13]: 0.03 µg/mL (≈ 0.0409 µM)
- MIC90 [13]: > 1 µg/mL
- MIC50 [14]: 0.06 µg/mL (≈ 0.0818 µM)
- MIC90 [14]: > 1 µg/mL
- Activity [15]: 18%
- Activity [16]: 13%
- Activity [17]: 63%
- MIC [18]: ≤ 0.015 µg/mL
- MIC50 [18]: inactive
- MIC90 [18]: inactive
- Activity [19]: 63%
- Activity [20]: 2%
- Activity [21]: 18%
- MIC50 [22]: > 16 µg/mL
- MIC90 [22]: > 16 µg/mL
- Activity [23]: 2%
- MIC50 [23]: > 16 µg/mL
- MIC90 [23]: > 16 µg/mL
- MIC50 [24]: > 16 µg/mL
- MIC90 [24]: > 16 µg/mL
- MIC50 [25]: > 1 µg/mL
- MIC90 [25]: > 1 µg/mL
- MIC50 [26]: > 16 µg/mL
- MIC90 [26]: > 16 µg/mL
- Activity [27]: 15%
- MIC [28]: ≤ 0.015 µg/mL
- MIC50 [28]: inactive
- MIC90 [28]: inactive
- Activity [29]: 62%
- MIC [30]: 0.03 µg/mL (≈ 0.0409 µM)
- Activity [31]: 42%
- Activity [32]: 89%
- MIC50 [33]: > 16 µg/mL
- MIC90 [33]: > 16 µg/mL
- Activity [34]: 18%
- Activity [35]: 18%
- MIC [36]: ≤ 0.015 µg/mL
- MIC50 [36]: inactive
- MIC90 [36]: inactive
- MIC50 [37]: > 16 µg/mL
- MIC90 [37]: > 16 µg/mL
- Activity [38]: 20%
- MIC [39]: ≤ 0.015 µg/mL
- MIC50 [39]: inactive
- MIC90 [39]: inactive
- MIC [40]: ≤ 0.015 µg/mL
- MIC50 [40]: inactive
- MIC90 [40]: inactive
- Activity [41]: 63%
- MIC50 [42]: > 16 µg/mL
- MIC90 [42]: > 16 µg/mL
- Activity [43]: 63%

SMILES: CC[C@H]1OC(=O)[C@H](C)C(=O)[C@H](C)[C@@H](O[C@@H]2O[C@H](C)C[C@H](N(C)C)[C@H]2O)[C@](C)(OC)C[C@@H](C)C(=O)[C@H](C)[C@H]2N(CCCCn3cnc(-c4cccnc4)c3)C(=O)O[C@]12C [TELITHROMYCIN]
- Activity [10]: 29%
- MIC50 [11]: 0.06 µg/mL (≈ 0.0739 µM)
- MIC90 [11]: 0.5 µg/mL (≈ 0.616 µM)
- MIC50 [13]: 0.015 µg/mL (≈ 0.0185 µM)
- MIC90 [13]: 0.015 µg/mL (≈ 0.0185 µM)
- MIC50 [14]: 0.015 µg/mL (≈ 0.0185 µM)
- MIC90 [14]: 0.25 µg/mL (≈ 0.308 µM)
- Activity [15]: 29%
- MIC [18]: 0.004 µg/mL (≈ 0.00493 µM)
- MIC50 [18]: inactive
- MIC90 [18]: inactive
- Activity [20]: 83%
- Activity [21]: 29%
- MIC50 [22]: > 8 µg/mL
- MIC90 [22]: > 8 µg/mL
- Activity [23]: 83%
- MIC50 [23]: 0.25 µg/mL (≈ 0.308 µM)
- MIC90 [23]: 16 µg/mL (≈ 19.7 µM)
- MIC50 [24]: > 8 µg/mL
- MIC90 [24]: > 8 µg/mL
- MIC50 [25]: 0.03 µg/mL (≈ 0.0369 µM)
- MIC90 [25]: 0.12 µg/mL (≈ 0.148 µM)
- MIC50 [26]: 0.5 µg/mL (≈ 0.616 µM)
- MIC90 [26]: > 8 µg/mL
- Activity [27]: 43%
- MIC [28]: 0.004 µg/mL (≈ 0.00493 µM)
- MIC50 [28]: inactive
- MIC90 [28]: inactive
- MIC50 [30]: 0.06 µg/mL (≈ 0.0739 µM)
- MIC90 [30]: 0.5 µg/mL (≈ 0.616 µM)
- Activity [31]: 100%
- MIC50 [33]: > 8 µg/mL
- MIC90 [33]: > 8 µg/mL
- Activity [34]: 29%
- Activity [35]: 29%
- MIC [36]: 0.004 µg/mL (≈ 0.00493 µM)
- MIC50 [36]: inactive
- MIC90 [36]: inactive
- MIC50 [37]: > 8 µg/mL
- MIC90 [37]: > 8 µg/mL
- MIC [39]: 0.004 µg/mL (≈ 0.00493 µM)
- MIC50 [39]: inactive
- MIC90 [39]: inactive
- MIC [40]: 0.004 µg/mL (≈ 0.00493 µM)
- MIC50 [40]: inactive
- MIC90 [40]: inactive
- MIC50 [42]: > 8 µg/mL
- MIC90 [42]: > 8 µg/mL
